Source: patent publication US20240133870A1, “COMBINED TREATMENT FOR CANCER” (Yeda Research and Development Co. Ltd., priority 2021, published 2024)

Key:
[1] = system: pERK in UACC62 xenograft tumors; assay: EVOC of xenograft tumors in various tissues, pERK immunohistochemistry; type: cell-based, human; conditions: skin tumors; AZD4547 2 μM added to vemurafenib 4 μM
Procedure: (§1) SK-MEL-5 BRAF (V600E) melanoma cells were co-cultured with the lung-derived stromal cell line WI-38 or with the bone marrow-derived stromal cell line HS-5 with or without vemurafenib (4 μM). […] Vehicle—DMSO, EGFRi—gefitinib (0.1 μM), EGFRi/HER2i—lapatinib (10 nM), METi—crizotinib (0.1 μM), FGFRi—AZD4547 (50 nM), NFkB/TNFRi—CAPE (10 μM), TGFBRi-LY2109761 (0.5 μM), gp130i—SC144 (1 nM). P-values were calculated by two-sided t-test. *** P<0.001. Error bars represent standard error. […] P-values were calculated by two-sided t-test. *** P<0.001. Error bars represent standard error. […] Human BRAF (V600E) melanoma cell lines UACC62 or G361 were used to generate xenograft tumor models in various tissues of nude mice. When tumors reached a volume of 500-700 μmm^3, they were resected, sliced, and cultured ex-vivo in the presence of different drug combinations or DMSO control. Following 4 days of drug treatment, slices were fixed, embedded in paraffin blocks, and subjected to immunohistochemistry, using anti-pERK antibody, or to immuno-fluorescence, using anti-pFGFR1 antibody. BRAFi (vemurafenib, 4 μM), FGFRi (AZD4547, 2 μM). […]
(§2) For the ex-vivo experiments EVOCs from immunocompromised mice bearing human tumors were generated, as further described hereinbelow. For the in-vivo validation experiments, mice bearing subcutaneous tumors were used; and response was measured by evaluating tumor volume. […]

[2] = system: pERK in G361 xenograft tumors; assay: as above; type: cell-based, human; conditions: co-treatment with vemurafenib 4 μM and AZD4547 2 μM
Procedure: as §1, §2

In the case of AZD4547, the pERK inhibition [1] is reported as “near complete inhibition of pERK” and the pERK downregulation [2] is reported as “sufficient to downregulate pERK in all of the different tumor locations”.
